Assay results published in patent US10501451B2, “Selective NR2B antagonists” (BRISTOL-MYERS SQUIBB COMPANY, priority 2015, dated 2019).
Read-outs that look alike come from different tables or passages of the source.

How the values were obtained:
mice = test: Mouse Forced Swim Test (mFST); format: in vivo; details: 1 mg/Kg i.v., 15 min before 6 min swim session
Protocol: Mouse Forced Swim Test (mFST). Forced Swim Test (FST) is an animal model used to assess antidepressant compounds in preclinical studies. The FST was performed similar to the method of Porsolt et al. with modifications (Porsolt R D, Bertin A, Jalfre M. Behavioral despair in mice: a primary screening test for antidepressants. Arch Int Pharmacodyn Thér 1977; 229:327-36). In this paradigm, mice are forced to swim in an inescapable cylinder filled with water. Under these conditions, mice will initially try to escape and eventually develop immobility behavior; this behavior is interpreted as a passive stress-coping strategy or depression-like behavior. […] The duration of immobility was evaluated during the total 6 min of the test and expressed as duration (sec) of immobility. […] All testing sessions were recorded with a video camera (Sony Handicam, Model: DCR-HC38E; PAL) and scoring was done using the Forced Swim Scan, Version 2.0 software (Clever Systems Inc., Reston, Va., USA; see Hayashi E, Shimamura M, Kuratani K, Kinoshita M, Hara H. Automated experimental system capturing three behavioral components during murine forced swim test. Life Sci. 2011 Feb. 28; 88(9-10):411-7 and Yuan P, Tragon T, Xia M, Leclair C A, Skoumbourdis A P, Zheng W, Thomas C J, Huang R, Austin C P, Chen G, Guitart X. Phosphodiesterase 4 inhibitors enhance sexual pleasure-seeking activity in rodents. […]

[1] = molecular target: brain-resident NR2B-subtype receptors (Mus musculus (Mouse), UniProt P35438+Q01097); test: Ex vivo occupancy assay; format: in vivo; details: iv, mouse
Protocol: Ex Vivo Occupancy Assay. […] 7-9 weeks old male CD-1 mice were dosed intravenously in a vehicle consisting of 10% dimethylacetamide, 40% PEG-400, 30% hydroxypropyl betacyclodextrin, and 30% water with experimental compounds and the forebrains were harvested 15 minutes post-dosing by decapitation. The brain samples were immediately snap-frozen and stored at −80° C. On the following day, the dosed brain samples were thawed on ice for 15-20 minutes followed by homogenization using Polytron for 10 seconds in cold homogenization buffer composed of 50 mM KH2PO4 (pH adjusted to 7.4 with KOH), 1 mM EDTA, 0.005% Triton X 100 and protease inhibitor cocktail (Sigma Aldrich). The crude homogenates were further homogenized using a Dounce homogenizer and the homogenized membrane aliquots from all animals were flash-frozen and stored at −80° C. until further use. The whole homogenization process was performed on ice. For determining occupancy, the membrane homogenates were first thawed on ice and then needle-homogenized using a 25 gauge needle. The homogenized membrane (6.4 mg/ml) was added to a 96-well plate followed by addition of ^3H Ro 25-6981 (6 nM). The reaction mixture was incubated for 5 minutes on a shaker at 4° C. and then harvested onto GF/B filter plates (treated with 0.5% PEI for 1 hr at room temperature). The filter plates were dried at 50° C. for 20 mins, incubated with microscint 20 for 10 minutes and read on TopCount (Perkin Elmer). Each dose or compound group consisted of 4-5 animals. The control group of animals was dosed with vehicle alone. Membrane from each animal was added in triplicates to the assay plate. Non-specific binding was determined using 10 μM Ro 25-6981 added to the wells containing membrane homogenates from vehicle-dosed animals. Specific counts/minute was converted to % occupancy at each dose of a compound for each animal using the following equation: […]
Drug levels were determined by mass spectroscopy in the usual manner. Drug levels in the blood plasma were 572 nM in at this dose, and drug levels in the homogenized brain tissue were 863 nM.

[2] = molecular target: NR2B-subtype NMDA receptors (Rattus norvegicus (Rat), UniProt P35439+Q00960); test: Radioligand binding assay (3H Ro 25-6981 competition, rat forebrain membranes); details: 3H Ro 25-6981 (4 nM)
Protocol: Radioligand Binding Assay. Binding experiments to determine binding to NR2B-subtype NMDA receptors were performed on forebrains of 8-10 weeks old male Sprague Dawley rats (Harlan, Netherlands) using ^3H Ro 25-6981 (Mutel V; Buchy D; Klingelschmidt A; Messer J; Bleuel Z; Kemp J A; Richards J G. Journal of Neurochemistry, 1998, 70(5):2147-2155. Rats were decapitated without anesthesia using a Guillotine (approved by animal ethics committee) and the harvested brains were snap-frozen and stored at −80° C. for 3-6 months for membrane preparation.
For membrane preparation, rat forebrains were thawed on ice for 20 minutes in homogenization buffer composed of 50 mM KH2PO4 (pH adjusted to 7.4 with KOH), 1 mM EDTA, 0.005% Triton X 100 and protease inhibitor cocktail (Sigma Aldrich). Thawed brains were homogenized using a Dounce homogenizer and centrifuged at 48000×g for 20 min. The pellet was resuspended in cold buffer and homogenized again using a Dounce homogenizer. Subsequently, the homogenate was aliquoted, snap-frozen and stored at −80° C. for not more than 3-4 months.
To perform the competition binding assay, thawed membrane homogenate was added to each well of a 96-well plate (20 μg/well). The experimental compounds were serially diluted in 100% DMSO and added to each row of the assay plate to achieve desired compound concentrations, keeping the DMSO concentration in the assay plate at 1.33% of the final reaction volume. Next, ^3H Ro 25-6981 (4 nM) was added to the assay plate. After incubation for 1 hr at room temperature, the membrane bound radioligand was harvested on to GF/B filter plates (treated with 0.5% PEI for 1 hr at room temperature). The filter plates were dried at 50° C. for 20 mins, incubated with microscint 20 for 10 minutes and finally, the counts were read on TopCount (Perkin Elmer).

Chain of brain-resident NR2B-subtype receptors (Q01097 27-1482, other chains not shown): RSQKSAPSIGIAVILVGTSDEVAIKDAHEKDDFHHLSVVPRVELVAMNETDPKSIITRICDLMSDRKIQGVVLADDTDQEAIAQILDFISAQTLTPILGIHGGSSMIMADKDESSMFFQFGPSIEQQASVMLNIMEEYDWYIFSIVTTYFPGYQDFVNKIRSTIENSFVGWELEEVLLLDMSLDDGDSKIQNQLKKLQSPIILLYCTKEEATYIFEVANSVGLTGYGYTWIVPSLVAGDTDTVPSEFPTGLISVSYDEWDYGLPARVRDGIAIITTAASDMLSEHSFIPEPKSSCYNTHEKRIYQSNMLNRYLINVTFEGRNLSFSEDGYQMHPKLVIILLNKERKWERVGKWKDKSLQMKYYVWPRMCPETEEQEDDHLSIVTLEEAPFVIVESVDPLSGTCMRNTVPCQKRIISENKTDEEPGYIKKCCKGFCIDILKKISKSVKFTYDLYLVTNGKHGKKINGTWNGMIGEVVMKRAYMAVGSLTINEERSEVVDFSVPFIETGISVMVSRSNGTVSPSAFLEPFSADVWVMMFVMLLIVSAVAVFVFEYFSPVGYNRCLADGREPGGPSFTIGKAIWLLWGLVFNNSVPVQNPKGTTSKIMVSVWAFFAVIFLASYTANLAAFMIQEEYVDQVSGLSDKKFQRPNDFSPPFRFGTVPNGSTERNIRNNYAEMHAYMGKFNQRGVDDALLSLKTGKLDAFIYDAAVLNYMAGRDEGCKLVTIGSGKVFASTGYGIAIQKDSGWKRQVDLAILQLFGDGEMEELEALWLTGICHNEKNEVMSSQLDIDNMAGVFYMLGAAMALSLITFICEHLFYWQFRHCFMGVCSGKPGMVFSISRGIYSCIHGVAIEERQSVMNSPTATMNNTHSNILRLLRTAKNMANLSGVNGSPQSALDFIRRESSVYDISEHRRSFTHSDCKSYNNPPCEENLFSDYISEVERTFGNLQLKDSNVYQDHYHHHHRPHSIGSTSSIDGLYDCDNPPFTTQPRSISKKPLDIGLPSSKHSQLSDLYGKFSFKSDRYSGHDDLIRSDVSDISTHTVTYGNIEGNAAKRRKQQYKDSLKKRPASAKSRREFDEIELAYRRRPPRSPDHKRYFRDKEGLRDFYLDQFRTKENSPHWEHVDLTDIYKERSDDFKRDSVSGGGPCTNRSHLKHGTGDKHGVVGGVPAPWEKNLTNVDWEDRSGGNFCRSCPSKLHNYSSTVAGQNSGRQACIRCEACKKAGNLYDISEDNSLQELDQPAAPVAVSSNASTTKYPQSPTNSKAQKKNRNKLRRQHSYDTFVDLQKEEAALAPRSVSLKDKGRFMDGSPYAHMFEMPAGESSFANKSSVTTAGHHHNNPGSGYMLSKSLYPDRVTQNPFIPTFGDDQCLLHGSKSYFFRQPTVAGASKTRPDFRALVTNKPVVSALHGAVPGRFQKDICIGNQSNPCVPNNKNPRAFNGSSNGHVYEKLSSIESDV
Chain of NR2B-subtype NMDA receptors (Q00960 27-1482, other chains not shown): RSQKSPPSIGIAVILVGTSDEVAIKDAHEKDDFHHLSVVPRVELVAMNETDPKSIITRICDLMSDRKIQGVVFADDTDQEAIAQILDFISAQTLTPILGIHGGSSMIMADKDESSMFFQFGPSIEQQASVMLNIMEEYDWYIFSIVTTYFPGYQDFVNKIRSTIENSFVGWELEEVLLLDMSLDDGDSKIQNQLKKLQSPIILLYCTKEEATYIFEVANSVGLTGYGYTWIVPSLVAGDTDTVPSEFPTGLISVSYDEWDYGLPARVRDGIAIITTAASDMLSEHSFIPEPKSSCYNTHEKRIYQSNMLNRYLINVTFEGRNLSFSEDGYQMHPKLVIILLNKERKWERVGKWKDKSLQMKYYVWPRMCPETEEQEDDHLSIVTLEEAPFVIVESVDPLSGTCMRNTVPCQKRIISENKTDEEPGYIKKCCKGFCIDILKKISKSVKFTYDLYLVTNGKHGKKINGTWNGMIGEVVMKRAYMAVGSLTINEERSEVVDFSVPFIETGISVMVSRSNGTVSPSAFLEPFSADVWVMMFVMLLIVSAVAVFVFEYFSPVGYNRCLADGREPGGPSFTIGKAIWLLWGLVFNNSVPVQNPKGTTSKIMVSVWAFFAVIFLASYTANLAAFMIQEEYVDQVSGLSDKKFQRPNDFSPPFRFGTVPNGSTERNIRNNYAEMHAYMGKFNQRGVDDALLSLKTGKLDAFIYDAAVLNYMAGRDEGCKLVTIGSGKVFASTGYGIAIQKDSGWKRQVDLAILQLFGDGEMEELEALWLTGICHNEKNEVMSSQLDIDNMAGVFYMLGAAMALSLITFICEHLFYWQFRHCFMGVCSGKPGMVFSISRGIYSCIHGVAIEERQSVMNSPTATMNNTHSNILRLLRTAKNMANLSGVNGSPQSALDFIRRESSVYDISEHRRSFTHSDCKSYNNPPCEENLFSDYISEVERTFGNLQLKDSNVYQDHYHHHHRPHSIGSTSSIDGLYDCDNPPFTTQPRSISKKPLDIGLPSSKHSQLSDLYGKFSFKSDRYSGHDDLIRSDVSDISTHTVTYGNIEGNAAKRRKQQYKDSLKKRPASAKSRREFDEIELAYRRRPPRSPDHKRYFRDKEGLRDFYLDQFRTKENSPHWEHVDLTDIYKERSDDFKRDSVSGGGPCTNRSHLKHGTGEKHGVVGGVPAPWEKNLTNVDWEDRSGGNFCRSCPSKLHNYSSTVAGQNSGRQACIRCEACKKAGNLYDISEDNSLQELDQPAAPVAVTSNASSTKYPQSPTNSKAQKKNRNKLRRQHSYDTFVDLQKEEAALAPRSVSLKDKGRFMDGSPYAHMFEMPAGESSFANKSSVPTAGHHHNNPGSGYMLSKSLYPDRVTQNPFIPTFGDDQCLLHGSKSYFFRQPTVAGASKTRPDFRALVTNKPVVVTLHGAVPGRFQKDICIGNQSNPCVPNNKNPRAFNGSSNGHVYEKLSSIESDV

SMILES: Cc1ccc(CN2OCC(N3CCN(c4ccc(O)cn4)CC3)C2=O)cc1 (single isomer, unassigned) [Example 10, P-1, 4-(4-(5-hydroxypyridin-2-yl)piperazin-1-yl)-2-(4-methylbenzyl)isoxazolidin-3-one]
- immobility time (mice): statistically significant decrease
- receptor occupancy at 1 mg/kg ([1]; 1 mg/Kg i.v., forced swim test animals): 69%
- receptor occupancy at 3 mg/kg ([1]; 3 mg/Kg i.v., forebrain harvested 15 minutes post-dosing): 94%
- Ki ([2]; listed as 10, P-1, read-out: NR2B Binding Ki): 3.2 nM
- Ki ([2]; read-out: binding Ki): 3.2 nM
